Results: patent US20100069393A1, “METHOD OF TREATMENT AND AGENTS USEFUL FOR SAME” (PRANA BIOTECHNOLOGY LIMITED, priority 2006, published 2010)

What was measured:
[1] = Cytotoxicity: viability of M17 cells; details: human, M17 neuroblastoma cells, Cytotoxicity (% viable at 1 and 10 uM); for viability at 1 uM: test compound 1 uM; for viability at 10 uM: test compound 10 uM
[2] = E Log D (chromatographic method, pH 7.4); assay type: physicochemical
Experimental: Effective Log D values were measured using a chromatographic method employing a SUPELCOSIL LC-ABZ column using an octanol saturated mobile phase at pH 7.4. See F. Lombardo et al, J. Med. Chem. 2000, 43, 2922-2928.

[3] = Mice plasma concentration; assay type: in vivo; details: for Mice plasma concentration in Tg mice: one or two time points (between 30 min and 4 h); for Mice plasma concentration: presence in plasma at one or two time points (between 30 min and 4 h)
[4] = In vivo toxicity, visual observations; details: 30 mg/kg, number of days
[5] = Neurotoxicity assay: MTS viability of primary cortical neuronal cultures; assay type: cell-based, mouse; details: BL6Jx129sv, mouse, primary cortical neuronal cultures, Neuronal cells, read-out: Cytotoxicity (% viable at 1 and 10 uM); for viability at 4 days, 1 uM: test compound 1 uM; for viability at 4 days, 10 uM: test compound 10 uM
[6] = Blood brain barrier penetration (brain:plasma ratio after IV dose); assay type: in vivo; details: nominal dose 5 mg/kg, male Swiss Outbred mice
Experimental: A bolus injection of each of the test compound (50 μL of a 3 mg/mL aqueous solution containing 40% propylene glycol and 10% ethanol) was administered by tail vein injection to male Swiss Outbred mice (5-7 weeks of age).
At 5 and 60 min post-dose (n=3 mice at each time point), blood was collected by cardiac puncture and the whole brain was removed by making an incision through the back of the skull. Mice were anaesthetised approximately 3-4 min prior to blood and brain harvest with an intraperitoneal injection of ketamine and xylazine (133 mg/kg and 10 mg/kg, respectively).
The whole brain was placed into preweighed polypropylene vials and stored at −20° C. until analysis. On the day of analysis, the whole brain was homogenised in 3 parts of water (on ice to reduce the potential for ex vivo brain degradation) and an aliquot of the brain homogenate and plasma was analysed for compound concentration by LCMS. Standards were prepared by spiking blank brain homogenate and both samples and standards were processed by adding acetonitrile to the tissue homogenate, centrifuging and injecting an aliquot of the supernatant onto the LCMS.
To ensure complete recovery of compound from the brain, brain homogenate was spiked with compound (in 50% acetonitrile:50% water) to a nominal concentration of 500 ng/mL. The concentration of compound in the supernatant was then determined by LCMS and compared to the supernatant concentration when compound was added following precipitation with acetonitrile.

[7] = test system: M17 human neuroblastoma cells; assay: Cytotoxicity: viability of M17 cells
[8] = Phase I safety and tolerability in healthy volunteers; assay type: in vivo, human
Experimental: Compound B was administered to healthy volunteers in a 2-part study comprising single dose administration (Stage A) and multidose administration (Stage B).
The objectives of the Phase I trials were to determine the safety, tolerability and pharmacokinetics of single and multiple oral doses of Compound B in healthy volunteers. The double-blind studies were conducted at a Phase I unit in The Netherlands. The protocol included safety measures designed to capture the potential human adverse effects. A total of 65 healthy subjects have been exposed to doses of Compound B (41 single dose, 24 multiple dose).
In Stage A, fifty five (55) healthy male subjects aged 18-50 years were randomised (3:1) to receive a single oral dose of either placebo or Compound B at one of 7 dose levels (25, 50, 100, 200, 300, 500 or 800 mg).
In Stage B, thirty two (32) healthy male and female subjects aged 45-75 years (eight subjects per dose level) were randomised (3:1) to receive a daily oral dose over 7 consecutive days of either placebo or Compound B at one of 4 dose levels (200, 400, 600 or 800 mg). Each dose level comprised of 4 males and 4 females; the randomisation schedule ensuring that 1 subject/sex received placebo and 3 subjects/sex received Compound B.

[9] = test system: primary cortical neuronal cultured cells; assay: Neurotoxicity assay: MTS viability of primary cortical neuronal cultures; assay type: cell-based, mouse
in vitro = details: human, Cytotoxicity (% viable at 1 and 10 uM)

| Structure (SMILES) | Mice plasma concentration [3] | B:P Ratio ([6]; 5 min post dose) | B:P Ratio ([6]; 60 min post dose) | viability at 1 uM [1] [%] | viability at 10 uM [1] [%] | Toxicity at 30 mg/kg [4] | viability at 4 days, 1 uM [5] [%] | viability at 4 days, 10 uM [5] [%] | also measured |
| --- | --- | --- | --- | --- | --- | --- | --- | --- | --- |
| O=c1c2c(Cl)cc(Cl)c(O)c2ncn1-c1ccc(F)cc1 |  |  |  | 93.2 | 47.3 | 5 days, none | 98 | 67 | ElogD (E) [2]: 5.32; Mice plasma concentration in Tg mice [3]: Up to 120 ng/mL in Tg mice |
| CN(C)Cc1ccc2c(Cl)cc(Cl)c(O)c2n1 [Compound B] |  |  |  |  |  |  |  |  | incidence of adverse events ([8]; Stage A, single oral dose 25-800 mg, healthy male volunteers aged 18 to 50 years): 43.9%; tolerability ([8]; Stage A, single oral dose, healthy male volunteers aged 18 to 50 years): well tolerated; tolerability ([8]; Stage B, daily oral dose over 7 days (200-800 mg), healthy subjects aged 45-75 years): generally well tolerated |
| Oc1c(N2CCOCC2)ncc2cccnc12 |  |  |  | 112 | 93.7 | 10 days, mild toxic signs | 104 | 98 | ElogD (E) [2]: 1.45; Mice plasma concentration in Tg mice [3]: Below 80 ng/mL in Tg mice |
| O=c1c2cccc(O)c2ncn1Cc1cn2ccccc2n1 |  |  |  |  |  |  |  |  | viability at 1 uM (in vitro): 95%; viability at 10 uM (in vitro): 98.4% |
| CN(C)Cc1ccc2c(Cl)cc(Cl)c(O)c2n1.Cl [drawing 119] | Up to 500 ng/ml ng/mL | 12.85 | 9.45 | 94 | 54.3 | None | 84 | 72 |  |
| Oc1c(I)cc(Cl)c2cccnc12 | Up to 700 ng/mL | 0.20 | 0.17 | 107 | 72.7 | none | 90 | 77 | ElogD (E) [2]: 1.85 |
| Cn1cnc(CCNC(=O)c2ccc3c(Cl)cc(Cl)c(O)c3n2)c1 | Up to 11605 ng/mL | 0.06 | 0.20 | 108 | 82.6 | 10 days, none | 93 | 88 |  |

Continued, in another order:

| Mice plasma concentration [3] | B:P Ratio ([6]; 5 min post dose) | B:P Ratio ([6]; 60 min post dose) | Structure (SMILES) | viability at 1 uM [1] [%] | viability at 10 uM [1] [%] | Toxicity at 30 mg/kg [4] | viability at 4 days, 1 uM [5] [%] | viability at 4 days, 10 uM [5] [%] | also measured |
| --- | --- | --- | --- | --- | --- | --- | --- | --- | --- |
| Up to 984 ng/mL | 0.16 | 0.10 | O=c1c2c(Cl)cc(Cl)c(O)c2ncn1Cc1ccccn1 | 102 | 98.9 | 10 days, none | 99 | 98 |  |
| Up to 144.2 ng/mL |  |  | O=c1c2c(Cl)cc(Cl)c(O)c2ncn1-c1ccccn1 [drawing 288] |  |  | 10 days, none |  |  | Cytotoxicity (% viable at 1 and 10 uM) ([7]; test compound 1 uM): 107.8%; Cytotoxicity (% viable at 1 and 10 uM) ([7]; test compound 10 uM): 89.2% |
| Up to 2949 ng/mL |  |  | CCC(C)n1cnc2c(O)c(Cl)cc(Cl)c2c1=O (centres unmarked) [drawing 189] |  |  | 10 days, none |  |  | Cytotoxicity (% viable at 1 and 10 uM) ([7]; test compound 1 uM): 99.2%; Cytotoxicity (% viable at 1 and 10 uM) ([7]; test compound 10 uM): 68.6%; Cytotoxicity (% viable at 1 and 10 uM) ([9]; test compound 1 uM): 94%; Cytotoxicity (% viable at 1 and 10 uM) ([9]; test compound 10 uM): 67% |
| Up to 3644 ng/mL | 0.18 | 0.08 | Cc1noc(C)c1Cn1cnc2c(O)c(Cl)cc(Cl)c2c1=O | 104 | 76 | 10 days, none | 99 | 72 |  |
| Up to 2698 ng/mL | 0.12 | 0.07 | O=c1c2c(Cl)cc(Cl)c(O)c2ncn1CC1CC1 | 96.2 | 76.8 | 11 days, none | 116 | 105 |  |
| Up to 5000 ng/mL | 0.26 | 0.24 | O=c1c2c(Cl)cc(Cl)c(O)c2ncn1C1CC1 | 105 | 72 | 10 days, none | 91 | 77 |  |
